Our source for the IC50 values is ChEMBL document CHEMBL1156341, “Synthesis of new artemisinin analogues from artemisinic acid modified at C-3 and C-13 and their antimalarial activity” (J Nat Prod, 2001).

Assay [1] relates to Plasmodium falciparum. Briefly: Antimalarial activity against chloroquine-resistant Plasmodium falciparum W2. Type of assay: functional, organism-based.
The subject of assay [2] is Plasmodium falciparum. Briefly: Antimalarial activity against chloroquine-sensitive Plasmodium falciparum D6. Type of assay: functional, organism-based.
A short description of assay [3]: Cytotoxicity against human vinblastine-resistant KBVIN cells in presence of vinblastine. Type of assay: functional, cell-based.

Converted amounts (≈) assume the structure as drawn.

With `C[C@@H]1CC[C@H]2[C@@H](CC#N)C(=O)O[C@@H]3O[C@@]4(C)CC[C@@H]1[C@]32OO4`, the IC50 in the assay with Plasmodium falciparum [1] turned out to be 8.4 ng/mL (≈ 0.0273 µM); in the assay on Plasmodium falciparum [2], 18.4 ng/mL (≈ 0.0599 µM).

Turning to `COC(=O)C[C@H]1C(=O)O[C@@H]2O[C@@]3(C)CC[C@H]4[C@H](C)CC[C@@H]1[C@@]24OO3`, the IC50 in the assay with Plasmodium falciparum [1] turned out to be 33 ng/mL (≈ 0.097 µM); with Plasmodium falciparum [2] it was 46 ng/mL (≈ 0.135 µM).

For `CC(=O)O[C@@H]1C[C@H]2[C@H](C)CC[C@H]3[C@@H](C)C(=O)O[C@@H]4O[C@]1(C)OO[C@]423`, the IC50 worked out at 2.07 ng/mL (≈ 0.00608 µM) in the assay on Plasmodium falciparum [1] and 11.1 ng/mL (≈ 0.0326 µM) with Plasmodium falciparum [2].

On to `COC[C@H]1C(=O)O[C@@H]2O[C@@]3(C)CC[C@H]4[C@H](C)CC[C@@H]1[C@@]24OO3`, for which the figures for the IC50 in the assay on Plasmodium falciparum [1] and with Plasmodium falciparum [2] were 59 ng/mL (≈ 0.189 µM) and 75 ng/mL (≈ 0.24 µM), respectively.

Take `C[C@@H]1CC[C@H]2C(=C3CC3)C(=O)O[C@@H]3O[C@@]4(C)CC[C@@H]1[C@]32OO4`: the results for the IC50 in the assay with Plasmodium falciparum [1] and in the assay with Plasmodium falciparum [2] were 4.3 ng/mL (≈ 0.014 µM) and 6.2 ng/mL (≈ 0.0202 µM), respectively.

For `C[C@@H]1CC[C@H]2[C@@H](CC[N+](=O)[O-])C(=O)O[C@@H]3O[C@@]4(C)CC[C@@H]1[C@]32OO4`, the IC50 in the assay on Plasmodium falciparum [1] worked out at 0.26 ng/mL (≈ 0.000762 µM); in the assay on Plasmodium falciparum [2], 0.68 ng/mL (≈ 0.00199 µM); in assay [3], 5.1 ng/mL.

As for `CCS(=O)(=O)C[C@H]1C(=O)O[C@@H]2O[C@@]3(C)CC[C@H]4[C@H](C)CC[C@@H]1[C@@]24OO3`, the IC50 in the assay on Plasmodium falciparum [1] and in the assay on Plasmodium falciparum [2] was more than 500 ng/mL throughout.

Take `C[C@@H]1CC[C@H]2[C@@H](C)C(=O)O[C@@H]3O[C@@]4(C)CC[C@@H]1[C@]32OO4` [ARTEMISININ]: in the assay on Plasmodium falciparum [1], inhibition was half-maximal at 0.2 ng/mL (≈ 0.000708 µM) (IC50).

Compound `OC(c1cc(C(F)(F)F)nc2c(C(F)(F)F)cccc12)C1CCCCN1` (centres undefined) [MEFLOQUINE] showed an IC50 in the assay on Plasmodium falciparum [1] of 3.6 ng/mL (≈ 0.00952 µM).

Take `C=C[C@H]1CN2CC[C@H]1C[C@H]2[C@H](O)c1ccnc2ccc(OC)cc12` [QUININE]: the IC50 amounted to 102 ng/mL (≈ 0.314 µM) in the assay on Plasmodium falciparum [1] and 19.6 ng/mL (≈ 0.0604 µM) in the assay on Plasmodium falciparum [2].

Broadly, the IC50 is the concentration needed to halve the response being measured.
